Test results: patent US20210052701A1, “Methods of Treating Vascular Leakage Using CXCL12 Peptides” (The Medical College of Wisconsin, Inc., priority 2018, published 2021)
Entries after “also recorded” stand apart in the source; their conditions may differ.

Experiments:
hPPAEC [1] = test: In vitro vascular permeability assay (FITC-dextran), hPPAEC monolayer, CXCR4/ACKR3 ligands without thrombin; assay type: cell-based, human; conditions: 50 nM ligand for 10 min, then FITC-dextran; no thrombin
Experimental: FIGS. 1A-1B show expression of CXCR4, ACKR3 and CXCR4:ACKR3 heteromers on hPPAEC and effects of CXCR4/ACKR3 ligands on hPPAEC monolayer permeability. (A) Detection of CXCR4, ACKR3 and CXCR4:ACKR3 heteromers on hPPAEC by PLA. Typical PLA images for the detection of individual receptors and CXCR4:ACKR3 heteromers. Images show merged PLA/40,6-diamidino-2-phenylindole dihydrochloride (DAPI) signals. Ctrl: Omission of one secondary antibody. (B) hPPAEC were grown to a confluent monolayer on collagen-coated permeable membranes. Cells were then exposed to vehicle or 50 nM of CXCR4/ACKR3 ligands for 10 minutes, as indicated, followed by the addition of FITC-dextran. Endothelial permeability was assessed by measuring the amount of FITC-dextran that permeated through the cell monolayer. N=3 in quadruplicate. No cells: 100% permeability, open squares. RFU: Relative fluorescence units. *: p<0.05 vs. vehicle (2-way ANOVA/Bonferroni's multiple comparison post hoc test).
Cells and cell lines—Human primary pulmonary artery endothelial cells (hPPAEC) (ATCC, PCS-100-022) and the human lung microvascular endothelial cell line HULEC-5a (ATCC, CRL-3244) were cultured in vascular cell basal medium (ATCC, PCS-100-030) with endothelial cell growth kit-VEGF (ATCC, PCS-100-041). The HTLA cell line, a HEK293 cell line stably expressing a tTA-dependent luciferase reporter and a β-arrestin2-TEV fusion gene, was generously provided by the laboratory of Dr. Bryan Roth and maintained in high glucose Dulbecco's Modified Eagle's Medium supplemented with 10% (vol/vol) FBS, 1× non-essential amino acids, 100 U/mL penicillin, 100 μg/mL streptomycin, 50 μg/mL hygromycin B, and 2 μg/mL puromycin. All cells were cultured at 37° C., 5% CO2 in a humidified atmosphere.
In vitro vascular permeability assays—Permeability assays were obtained from Millipore (ECM642) and performed as per manufacturer's instructions. In brief, 96-well collagen-coated permeability assay plates were pre-hydrated for 15 min, 5×10^5 cells were seeded on each well and grown to a confluent monolayer for 48 hours. Fluorescein isothiocyanate (FITC)-dextran (20 μg/mL) was then added on top of the monolayer and the amount of FITC-dextran that permeated through the monolayer was quantified by measuring fluorescence in a Synergy 2 Multi-mode Microplate Reader (BioTek, Winooski, Vt.) at various time points over a 255 min time period.

hPPAEC [2] = test: Effects of CXCR4 agonists / CXCL12 variants on thrombin-induced impairment of hPPAEC monolayer permeability; assay type: cell-based, human
Summary of the method: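 Confluent hPPAEC monolayers on collagen-coated permeable membranes were exposed to 35 nM thrombin; 10 min later, agonists or CXCL12 variants (0.05–50 nM) were added, ± AMD3100 10 μM. FITC-dextran (20 μg/mL) crossing the monolayer was read by fluorescence over 255 min. % inhibition of hyperpermeability was taken at 255 min; N=3 in quadruplicate.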

## CXCL12: Wild-type CXCL12 (SEQ ID NO:1), cognate agonist of CXCR4 and ACKR3
hPPAEC [1]
  effect on hPPAEC monolayer permeability: enhanced hPPAEC barrier function
hPPAEC [2]; 100 nM for 10 min, then thrombin (50 nM)
  effect of pre-treatment on thrombin-induced hyper-permeability of hPPAEC: significantly attenuated thrombin-induced hyper-permeability of hPPAEC; also recorded: more efficacious than ubiquitin
hPPAEC [2]; thrombin 35 nM, after 10 min CXCL12 or ubiquitin 50 nM, AMD3100 10 μM
  effect on thrombin-induced permeability of hPPAEC when added after thrombin: significantly attenuated thrombin-induced permeability of hPPAEC
